Data from patent US20160193240A1, “Ulmoside-A: Useful For Prevention Or Cure Of Metabolic Diseases” (COUNCIL OF SCIENTIFIC & INDUSTRIAL RESEARCH, priority 2013, published 2016).

Tests used:
AdipoR1 = target: T1, AdipoR1 (Homo sapiens, UniProt Q96A54); assay: Radio-ligand saturation binding assay with 125I-ULMA, CHO cells transfected with AdipoR1
T1 construct: expressed in transfected cells; host or cells: Chinese Hamster Ovary cells (ECACC 85050302), transient transfection with Lipofectamine LTX
T1 sequence (Q96A54 1-375): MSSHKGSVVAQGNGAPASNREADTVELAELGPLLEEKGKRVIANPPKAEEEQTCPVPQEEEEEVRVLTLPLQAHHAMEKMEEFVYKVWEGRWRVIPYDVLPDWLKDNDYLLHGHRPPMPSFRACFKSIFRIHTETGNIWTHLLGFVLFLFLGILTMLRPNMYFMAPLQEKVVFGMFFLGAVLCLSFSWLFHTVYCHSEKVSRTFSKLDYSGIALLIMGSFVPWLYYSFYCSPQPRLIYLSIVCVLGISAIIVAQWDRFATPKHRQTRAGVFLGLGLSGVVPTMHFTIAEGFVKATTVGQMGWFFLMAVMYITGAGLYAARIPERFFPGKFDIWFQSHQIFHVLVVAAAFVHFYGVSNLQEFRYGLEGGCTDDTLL
Description: D. CHO cells transfected with empty vector or AdipoR1 or R2 expression vectors were incubated with various concentrations of ^125I-ULMA for 2 h at 4° C. Following washes, cells were lysed and count per minute was analyzed in a gamma counter. 200 fold molar excess of unlabeled ULMA was used for each concentration of radiolabeled ULMA for determining nonspecific activity. Count per minutes were normalized with total cellular protein content followed by further normalization with non-specific activity and plotted. Data is mean±SEM from three experiments performed in triplicates.
Further validation of AdipoR-ULMA interaction and its quantitation was done using a radio-ligand saturation binding assay using ^125I-ULMA. ULMA was first radiolabeled using chloramines-T method. 10 μl of ^125I (20 MBq; BARC, Mumbai, India) was added to 100 μg GTDF in 5% acetic acid/methanol, then chloramine-T (Sigma, 4 μg in MilliQ H2O) was added, and the mixture was allowed to react at room temperature (24° C.) for 5 min. […] was used for protein estimation using standard Bradford assay and rest of the lysate was used for measuring radioactivity in a gamma-counter (Cole Palmer). The count per minute was normalized with protein concentration and was further normalized with non specific binding, which was determined for every concentration of ^125I-ULMA, using 200 fold molar excess of unlabeled ULMA.

[1] = system: 3T3L-1 mouse pre-adipocyte cells; assay: Brown adipose marker expression in differentiating 3T3L-1 preadipocytes; type: cell-based
Description: A. 3T3L-1 mouse preadipocyte cells in 6 well plates were allowed to reach full confluence. Two days following confluence (designated as day 0), the growth medium was replaced with differentiation medium (DM). After two days of incubation in DM, this medium was replaced with insulin medium (Ins) and the cells were incubated in Ins for 2 days and then the insulin medium was replaced with growth medium (GM) and the cells were cultured for a total of 10 days (starting from day 0). The cells were treated with vehicle (0.1% DMSO) or ULMA (10 nM in 0.1% DMSO) on day 0 and the total treatment duration was 10 days. In all cases, medium was replaced with fresh corresponding medium every day containing vehicle (0.1% DMSO) or 10 nM ULMA (in DMSO; final DMSO concentration in all wells 0.1% vol/vol). After a total of 10 days from day 0, cells were washed in cold PBS and RNA was extracted using trizol reagent using standard procedure following which cDNA synthesis was done and UCP-1, UCP-2, PGC-1α and PRDM16 expression were determined using QRT-PCR, normalized with Beta-actin mRNA and plotted as fold induction over vehicle treated control. Data is mean±SEM of three independent experiments performed in triplicates. **p<0.01 as determined by two tailed unpaired student's t-test.
C. Cells from identical set of experiments as described in FIGS. 5A and 5B or human SVFs prepared by collagenase digestions were analyzed by western blot analysis for determination of UCP-1, UCP-2 and PGC-1α protein level. Beta-actin was used as a loading control. Data is representative of three independent experiments.
Adiponectin has previously been described to enhance mitochondrial function in adipose tissues and induces its thermogenic potential and therefore causes a conversion towards brown adipose phenotype characterized by an increase in UCPs, in particular UCP-1 (I. B. Bauche, S. A. E. Mkadem, A-M. Pottier, M. Senou, M-C. Many, R. Rersohazy, L. Penicaud, N. Maeda; T. Funahashi, S. M. Brichard. Endocrinology 148(4):1539-1549. 2007). Therefore, the ability of ULMA to induce UCP-1 and 2 in different stages of adipocyte differentiation was checked. We also checked other brown adipose markers such as PGC-1α and PR domain containing 16 (PRDM16). 3T3L-1 mouse pre-adipocyte cells (ATCC, CL-173) maintained in growth medium (DMEM with 4.5 mg/ml glucose, 4.0 mM glutamine, 1 mM sodium pyruvate, 10% FBS and 1× antibiotic-antimycotic solution (all reagents from invitrogen)) were plated in 6 well plates and allowed to reach full confluence. […] After two days of incubation in differentiation medium, this medium was replaced with insulin medium (DMEM, 10% FBS, plus 1.5 μg/ml insulin) and the cells were incubated in insulin medium for 2 days and then the insulin medium was replaced with growth medium and the cells were then cultured for total of 10 days (from day 0). For ULMA treatment, the cells were treated on day 0 (the day on which differentiation medium was added), and the treatment was continued for a total of 10 days. In all cases, medium was replaced with fresh medium containing vehicle (0.1% DMSO) or 10 nM ULMA every day. After 10 days from day 0, cells were washed in cold PBS and RNA was extracted using trizol reagent using standard procedure following which cDNA synthesis was done and transcript expression was determined using QRT-PCR as described above.
For western blot-based determination of UCP-1, UCP-2 and PGC-1α protein level, cells from an identical set of experiment were lysed and western blotted with UCP-1, UCP-2 (Abcam), PGC-1α(Calbiochem), or beta-actin (cell signaling technology; used as a loading control) as described above.

[2] = 10 nM, 10 days of differentiation
[3] = differentiated in presence of ULMA, 10 days

O=C1c2c(cc(O)c([C@@H]3O[C@H](CO)[C@@H](O)[C@H](O)[C@H]3O)c2O)O[C@@H](c2ccc(O)c(O)c2)[C@@H]1O [ULMA, (2S,3S)-(+)-3′,4′,5,7-tetrahydroxydihydroflavonol-6-C-β-D-glucopyranoside]
maximum binding (BMAX) (AdipoR1): 1410 fmol/mg of protein | Kd (AdipoR1; 2 hours, ice cold, read-out: dissociation constant (Kd)): 4.9 nM | PGC-1α mRNA level [1, 2]: significant increase | PRDM16 mRNA level [1, 2]: significant increase | UCP-1 mRNA level [1, 2]: significant increase | UCP-2 mRNA level [1, 2]: significant increase | PGC-1α protein level [1, 3]: elevated | UCPs protein level [1, 3]: elevated
